One assay in a line: cells. It counts as functional.
The target in assay [1] is T1, Microphthalmia-associated transcription factor (Homo sapiens, UniProt O75030).
T1 sequence (O75030 whole entry): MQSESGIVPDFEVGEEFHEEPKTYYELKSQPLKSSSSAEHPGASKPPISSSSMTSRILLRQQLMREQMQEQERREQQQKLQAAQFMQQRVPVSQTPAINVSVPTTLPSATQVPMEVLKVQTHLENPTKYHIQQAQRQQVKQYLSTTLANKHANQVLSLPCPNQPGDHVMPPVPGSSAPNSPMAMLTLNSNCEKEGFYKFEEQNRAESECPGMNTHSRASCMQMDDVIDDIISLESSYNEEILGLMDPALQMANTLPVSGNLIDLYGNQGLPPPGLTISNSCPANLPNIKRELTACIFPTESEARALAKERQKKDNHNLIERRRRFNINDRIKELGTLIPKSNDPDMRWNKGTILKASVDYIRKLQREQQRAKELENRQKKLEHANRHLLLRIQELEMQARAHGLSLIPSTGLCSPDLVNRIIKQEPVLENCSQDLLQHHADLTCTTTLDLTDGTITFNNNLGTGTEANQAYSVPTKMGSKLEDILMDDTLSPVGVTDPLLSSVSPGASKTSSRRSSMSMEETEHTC
Briefly: TRPM1 promoter luciferase signal decrease, dose response, MITF inhibitor project, cell-based, SK-MEL-5, cherry-picked, set 3 (AID 493073).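 Note: SK-MEL-5 melanoma cells with luciferase driven by the MITF target TRPM1 promoter.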 In kind it is functional.

In a further assay the target is T2, Cytochrome P450 1A2 (Homo sapiens, UniProt P05177).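 Note: PubChem cytochrome P450 panel assay, CYP1A2 panel member.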
T2 sequence (P05177 whole entry): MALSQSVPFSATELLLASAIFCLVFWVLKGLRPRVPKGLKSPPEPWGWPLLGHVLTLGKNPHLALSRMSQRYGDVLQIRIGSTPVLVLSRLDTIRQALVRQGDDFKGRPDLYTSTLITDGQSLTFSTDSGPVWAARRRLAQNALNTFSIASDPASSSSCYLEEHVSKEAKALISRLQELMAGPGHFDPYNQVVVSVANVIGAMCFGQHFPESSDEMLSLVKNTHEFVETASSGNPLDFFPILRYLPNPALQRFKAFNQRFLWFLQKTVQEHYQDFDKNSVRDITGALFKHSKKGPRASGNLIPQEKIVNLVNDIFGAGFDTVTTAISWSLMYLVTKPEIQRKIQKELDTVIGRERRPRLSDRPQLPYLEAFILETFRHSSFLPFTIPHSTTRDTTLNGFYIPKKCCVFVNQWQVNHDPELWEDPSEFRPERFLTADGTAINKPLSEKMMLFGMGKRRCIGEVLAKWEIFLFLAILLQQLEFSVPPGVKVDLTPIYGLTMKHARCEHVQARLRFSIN

A further assay has as its target T3, Leucine aminopeptidase (Plasmodium falciparum 3D7, UniProt Q8IL11).
T3 sequence (Q8IL11 whole entry): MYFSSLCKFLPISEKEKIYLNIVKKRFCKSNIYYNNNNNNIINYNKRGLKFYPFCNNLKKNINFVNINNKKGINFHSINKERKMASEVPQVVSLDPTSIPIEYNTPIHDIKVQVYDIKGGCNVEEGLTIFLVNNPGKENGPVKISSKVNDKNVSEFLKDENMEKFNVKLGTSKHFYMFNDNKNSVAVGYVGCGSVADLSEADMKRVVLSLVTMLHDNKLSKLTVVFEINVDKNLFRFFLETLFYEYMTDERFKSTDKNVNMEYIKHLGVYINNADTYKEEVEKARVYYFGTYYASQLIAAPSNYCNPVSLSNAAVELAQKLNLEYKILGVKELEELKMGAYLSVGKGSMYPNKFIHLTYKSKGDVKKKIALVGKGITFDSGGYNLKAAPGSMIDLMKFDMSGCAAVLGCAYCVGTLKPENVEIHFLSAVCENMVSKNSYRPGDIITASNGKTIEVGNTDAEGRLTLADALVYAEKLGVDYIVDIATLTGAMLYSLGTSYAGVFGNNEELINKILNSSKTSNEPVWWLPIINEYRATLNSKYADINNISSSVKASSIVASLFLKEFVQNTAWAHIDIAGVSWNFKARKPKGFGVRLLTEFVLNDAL
Briefly: P. falciparum M17LAP inhibitors, primary screen, biochemical, fluorogenic H-Leu-NHMec substrate, 1536-well (AID 1619). In kind it is functional.

Assay [2] in a line: Luminescence Cell-Based Dose Confirmation HTS to Identify Activators of 5'UTR Stem-Loop Driven Alpha-Synuclein mRNA Translation in H4 Neuroglioblastoma Cells. [Related pubchem assays: 1829 (Project Summary), 1814 (Primary HTS)]. It counts as functional.
Assay [3] can be described thus: Luminescence Cell-Based Dose Response HTS to Identify Activators of Luciferase Translation or Activity in H4 […] Cells. [Related pubchem assays: 1829 (Project Summary), 1814 (Primary HTS)]. In kind it is functional.
For another assay, the target named is Cytochrome P450 2C9 (Homo sapiens, UniProt P11712).
A further assay concerns H4. Briefly: Luminescence Cell-Based Dose Response HTS to Identify Activators of 5'UTR Stem-Loop Driven Prion Protein mRNA Translation in H4 Neuroglioblastoma Cells. [Related pubchem assays: 1829 (Project Summary), 1814 (Primary HTS)]. Conditions: Homo sapiens. It counts as functional.
Assay [4] deals with T4, Ubiquitin-conjugating enzyme E2 N (Homo sapiens, UniProt P61088).
T4 sequence (P61088 whole entry): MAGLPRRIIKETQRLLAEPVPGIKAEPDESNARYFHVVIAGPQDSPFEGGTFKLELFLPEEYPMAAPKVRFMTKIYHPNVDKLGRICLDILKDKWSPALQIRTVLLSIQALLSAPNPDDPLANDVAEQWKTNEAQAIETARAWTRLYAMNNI
It counts as functional.

In assay [5] the target is Glyceraldehyde-3-phosphate dehydrogenase (Homo sapiens, UniProt P04406).
In assay [6] the target is T5, Alkaline phosphatase, tissue-nonspecific isozyme (Homo sapiens, UniProt P05186).
T5 sequence (P05186 whole entry): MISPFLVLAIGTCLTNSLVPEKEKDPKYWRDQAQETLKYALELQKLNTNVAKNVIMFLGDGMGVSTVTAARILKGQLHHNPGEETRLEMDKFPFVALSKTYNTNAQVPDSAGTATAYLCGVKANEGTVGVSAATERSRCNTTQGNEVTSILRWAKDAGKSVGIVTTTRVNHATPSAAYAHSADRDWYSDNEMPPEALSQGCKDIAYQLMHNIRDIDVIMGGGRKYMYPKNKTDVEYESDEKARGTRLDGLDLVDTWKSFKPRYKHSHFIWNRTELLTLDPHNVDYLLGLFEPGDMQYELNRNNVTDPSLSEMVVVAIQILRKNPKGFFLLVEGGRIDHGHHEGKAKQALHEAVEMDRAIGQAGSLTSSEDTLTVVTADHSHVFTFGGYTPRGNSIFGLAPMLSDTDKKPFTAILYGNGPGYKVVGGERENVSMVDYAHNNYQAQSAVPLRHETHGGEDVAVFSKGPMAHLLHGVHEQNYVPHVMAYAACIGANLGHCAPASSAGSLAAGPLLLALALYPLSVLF
The experiment in a line: human TNAP enzyme inhibitors, SAR follow-up, biochemical, luminescent, dose response (AID 1056).

Assay [7] relates to Streptococcus sp. 'group A'. The experiment in a line: growth inhibition of control SK(-) GAS strain, dose response, counter-screen for streptokinase expression inhibitor project, luminescence, kanamycin, BacTiterGlo, confirmation (AID 1900). In kind it is functional, organism-based. (The purpose of a counterscreen is to sort out artefacts and off-target activity.)
In the next assay the target is T6, Streptokinase A (Streptococcus pyogenes serotype M1, UniProt P10520).
T6 sequence (P10520 whole entry): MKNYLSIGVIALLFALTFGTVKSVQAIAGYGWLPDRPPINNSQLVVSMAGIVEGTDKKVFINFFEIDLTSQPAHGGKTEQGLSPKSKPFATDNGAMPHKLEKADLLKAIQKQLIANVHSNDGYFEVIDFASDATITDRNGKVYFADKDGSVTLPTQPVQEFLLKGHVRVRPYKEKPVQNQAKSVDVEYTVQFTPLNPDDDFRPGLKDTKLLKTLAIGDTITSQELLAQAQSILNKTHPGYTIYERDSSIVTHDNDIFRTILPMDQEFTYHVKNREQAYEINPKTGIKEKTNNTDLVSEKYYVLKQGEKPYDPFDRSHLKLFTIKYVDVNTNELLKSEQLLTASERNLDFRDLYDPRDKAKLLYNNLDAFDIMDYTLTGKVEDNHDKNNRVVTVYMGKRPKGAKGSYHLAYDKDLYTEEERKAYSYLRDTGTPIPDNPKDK
The experiment in a line: S. pyogenes streptokinase expression inhibitors, potency, dose response, plasminogen activation absorbance, OD405 (AID 1914).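 Note: secreted streptokinase activity via plasminogen activation per viability signal from cell pellet.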 It counts as functional, Streptococcus pyogenes M1 GAS.

A further assay relates to Streptococcus. The experiment in a line: Group A Streptococcus viability loss, dose response, counter-screen for streptokinase expression inhibitor project, luminescence, BacTiterGlo (AID 1915).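 Note: potency for reduction of bacterial viability or growth.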 In kind it is functional, organism-based.
Assay [8] has as its target Disintegrin and metalloproteinase domain-containing protein 17 (Homo sapiens, UniProt P78536). Briefly: ADAM17 protease inhibitors, dose response, counter-screen for ADAM10 exosite inhibitor project, biochemical, quenched FRET substrate (AID 743253).
Assay [9] addresses T7, Corticotropin-releasing factor receptor 2/Corticotropin-releasing factor-binding protein (Homo sapiens, UniProt P24387+Q13324).
T7 sequence (Q13324 whole entry): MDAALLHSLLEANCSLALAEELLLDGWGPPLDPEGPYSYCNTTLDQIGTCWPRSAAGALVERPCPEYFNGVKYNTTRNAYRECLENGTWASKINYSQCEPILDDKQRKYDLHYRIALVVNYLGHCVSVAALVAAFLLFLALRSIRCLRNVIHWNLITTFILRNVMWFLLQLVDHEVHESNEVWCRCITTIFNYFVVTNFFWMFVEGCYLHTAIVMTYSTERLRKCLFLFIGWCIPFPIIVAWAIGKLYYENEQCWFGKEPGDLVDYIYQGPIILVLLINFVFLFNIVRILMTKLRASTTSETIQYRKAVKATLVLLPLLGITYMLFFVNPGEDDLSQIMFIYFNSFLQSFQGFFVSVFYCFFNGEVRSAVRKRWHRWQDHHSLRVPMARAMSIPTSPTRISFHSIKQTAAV
T7 sequence (P24387 whole entry): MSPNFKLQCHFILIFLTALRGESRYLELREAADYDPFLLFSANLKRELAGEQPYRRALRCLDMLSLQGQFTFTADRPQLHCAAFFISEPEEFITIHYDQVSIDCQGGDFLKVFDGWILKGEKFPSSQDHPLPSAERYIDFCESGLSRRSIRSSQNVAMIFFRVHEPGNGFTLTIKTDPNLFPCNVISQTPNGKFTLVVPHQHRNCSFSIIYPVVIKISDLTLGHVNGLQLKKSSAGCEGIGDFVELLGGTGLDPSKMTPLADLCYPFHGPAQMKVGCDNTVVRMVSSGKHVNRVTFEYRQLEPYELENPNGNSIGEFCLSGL
Briefly: activators of CRF receptor 2 with binding protein – uHTS hits, confirmation (AID 602473). In kind it is functional. As to conditions: read-out: EC50_Mean.

The IC50 is the concentration that gives 50% inhibition. As usually defined, the AC50 is the concentration at which the activity in the assay is half-maximal.

The structures appear in SMILES notation. Active and inactive are the calls of the source.

Glyceraldehyde-3-phosphate dehydrogenase, sequence (P04406 whole entry): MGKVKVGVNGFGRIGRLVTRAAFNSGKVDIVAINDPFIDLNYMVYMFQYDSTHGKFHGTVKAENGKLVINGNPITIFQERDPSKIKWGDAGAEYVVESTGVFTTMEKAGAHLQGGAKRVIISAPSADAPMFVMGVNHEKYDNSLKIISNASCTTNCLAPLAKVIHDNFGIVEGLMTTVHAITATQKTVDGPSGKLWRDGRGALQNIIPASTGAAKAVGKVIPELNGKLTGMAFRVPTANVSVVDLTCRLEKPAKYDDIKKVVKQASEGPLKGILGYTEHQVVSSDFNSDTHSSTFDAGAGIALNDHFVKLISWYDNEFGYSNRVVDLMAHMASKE
Disintegrin and metalloproteinase domain-containing protein 17, sequence (P78536 whole entry, the tested form may be a part): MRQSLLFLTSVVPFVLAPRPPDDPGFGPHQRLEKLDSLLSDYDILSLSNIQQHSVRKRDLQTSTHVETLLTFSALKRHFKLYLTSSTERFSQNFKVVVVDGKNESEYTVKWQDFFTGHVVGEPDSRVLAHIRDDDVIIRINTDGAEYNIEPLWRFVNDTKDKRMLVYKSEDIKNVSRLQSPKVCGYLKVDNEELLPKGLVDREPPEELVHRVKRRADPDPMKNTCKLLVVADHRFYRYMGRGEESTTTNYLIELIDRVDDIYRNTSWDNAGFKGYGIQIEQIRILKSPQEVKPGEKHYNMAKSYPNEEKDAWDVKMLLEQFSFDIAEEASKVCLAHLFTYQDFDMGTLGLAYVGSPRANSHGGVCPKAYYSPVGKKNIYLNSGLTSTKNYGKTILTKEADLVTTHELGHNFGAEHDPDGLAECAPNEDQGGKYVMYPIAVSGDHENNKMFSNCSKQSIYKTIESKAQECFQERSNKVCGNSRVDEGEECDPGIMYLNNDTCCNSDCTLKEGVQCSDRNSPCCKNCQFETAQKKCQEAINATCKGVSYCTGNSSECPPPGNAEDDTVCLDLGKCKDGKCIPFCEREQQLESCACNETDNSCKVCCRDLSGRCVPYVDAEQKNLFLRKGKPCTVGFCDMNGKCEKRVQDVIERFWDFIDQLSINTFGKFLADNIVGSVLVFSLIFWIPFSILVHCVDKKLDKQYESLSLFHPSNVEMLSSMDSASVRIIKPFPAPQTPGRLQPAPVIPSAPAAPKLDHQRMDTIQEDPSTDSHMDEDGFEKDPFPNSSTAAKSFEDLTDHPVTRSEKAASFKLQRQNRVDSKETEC
Cytochrome P450 2C9, sequence (P11712 whole entry): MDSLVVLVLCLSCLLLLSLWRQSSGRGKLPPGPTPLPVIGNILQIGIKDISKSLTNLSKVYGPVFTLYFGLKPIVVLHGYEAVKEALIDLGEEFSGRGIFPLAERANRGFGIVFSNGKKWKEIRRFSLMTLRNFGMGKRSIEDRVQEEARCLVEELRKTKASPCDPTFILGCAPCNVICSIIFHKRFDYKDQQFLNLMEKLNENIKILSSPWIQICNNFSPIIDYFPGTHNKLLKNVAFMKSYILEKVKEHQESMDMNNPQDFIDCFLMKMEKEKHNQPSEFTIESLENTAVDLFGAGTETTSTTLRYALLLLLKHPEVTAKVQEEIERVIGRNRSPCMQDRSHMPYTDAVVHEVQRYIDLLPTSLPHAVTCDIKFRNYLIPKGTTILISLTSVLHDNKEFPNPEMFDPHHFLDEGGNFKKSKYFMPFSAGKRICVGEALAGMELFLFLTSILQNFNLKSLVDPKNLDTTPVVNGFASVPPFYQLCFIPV

As for `CC(/C=C/c1ccccc1)=N\NC(=O)c1ccc2c(c1)OCCO2`, the concentration for half-maximal inhibition (IC50) in the assay “cells” is 25.7 µM (active).
For `CC1CCN(CC2C(=O)O[C@@H]3C[C@@]4(C)CCC[C@H](C)C4=C[C@H]23)CC(C)(C)C1` (some centres undefined), the AC50 in assay [1] is 16.1 µM (active).
Turning to `O=C(CN1C(=O)C2C3C=CC(C3)C2C1=O)Nc1ccc2c(c1)OCCO2` (centres undefined), the results for the AC50 on Cytochrome P450 1A2 and on Cytochrome P450 2C9 were 15.8 µM (inconclusive) and 316 nM (inconclusive), respectively. Besides, the IC50 at Leucine aminopeptidase was 21 µM (active). Also, the EC50 is 15.1 µM (active) in assay [2], 22.4 µM (active) in assay [3] and 19 µM (active) in the assay with H4.
Regarding `CCN(CC)CCNC(=O)c1c(C)n(-c2ccccc2)c2cc(Br)c(OC)cc12`, the IC50 in assay [4] is > 20 µM (inactive). For the same compound, the half-maximal activity concentration (AC50) in assay [1] is 12.9 µM (active).
For `c1ccc(Cn2cnc(-c3cccnc3)c2)cc1`, the IC50 was > 100 µM (not active) in [5] and > 100 µM (inactive) in [6].
In the case of `O=C(Nc1ccc(N2CCCC2)c(S(=O)(=O)Nc2cccc(C(F)(F)F)c2)c1)c1cccs1`, the values for the EC50 (in [7]; on Streptokinase A; in the assay with Streptococcus) were 3.38 µM (active), > 150 µM (not active) and 10.5 µM (active), respectively. Moreover, the IC50 in [8] was > 69.5 µM (inactive).
As to `COc1ccc2c(c1OC)C(=O)N(c1nnc(SC)[nH]1)C2=O`, the IC50 in [5] is > 100 µM (not active); in assay [6], 34.1 µM (active).
Consider `CC(=O)c1ccc(N2CCC(c3cc(-c4ccc(Cl)cc4Cl)n[nH]3)CC2)c([N+](=O)[O-])c1`, for which the concentration at half-maximal activity (AC50) at Cytochrome P450 1A2 was 14.1 µM (inconclusive). The EC50 at Streptokinase A is reported as > 150 µM (not active). For the same compound, the IC50 in assay [8] was > 69.5 µM (inactive).
Consider `COc1cc(OC)c2c(OC)cccc2n1`, for which, in “cells”, the 50% inhibitory concentration (IC50) is 30.1 µM (active).
As for `Cc1ccc(S(=O)(=O)Nc2cnc3ccccc3c2)cc1`, the concentration for half-maximal inhibition (IC50) is > 100 µM (not active) in [5] and 44.9 µM (active) in [6].
With `Cc1cccc(C(=O)NC(=S)NNC(=O)COc2c(C)cccc2C)c1`, the 50% inhibitory concentration (IC50) at Leucine aminopeptidase is 59.1 µM (active). In addition, in assay [9], the EC50 is 1.65 µM (active).
As for `CCCOC(=O)c1ccc(NC(=O)c2ccc(Br)o2)cc1`, the IC50 in “cells” is 30.5 µM (active).
Consider `CCN(CC)C(=O)c1cc(-c2cc(F)c(Cl)cc2Cl)n[nH]1`, for which the concentration for half-maximal inhibition (IC50) is > 10 µM (inconclusive) in assay [5] and 3.63 µM (active) in [6].

(Values after ChEMBL document CHEMBL1201862, “PubChem BioAssay data set” (2004).)
